Measured values published in the kinase profiling compilation of Christmann-Franck et al. (2016).

Key:
Experiment in all cases: KINOMEscan competition binding
Details in all cases: compound 10.0 µM
EPHA5 (human) = EPHA5 (human) (UniProt P54756)
MERTK (human) = MERTK (human) (UniProt Q12866)
MET (human) = MET (human) (UniProt P08581)
CASK (human) = CASK (human) (UniProt O14936)
PLK4 (human) = PLK4 (human) (UniProt O00444)
STK38L (human) = STK38L (human) (UniProt Q9Y2H1)
MAP2K3 (human) = MAP2K3 (human) (UniProt P46734)
MAP2K6 (human) = MAP2K6 (human) (UniProt P52564)
MAP3K5 (human) = MAP3K5 (human) (UniProt Q99683)
TNNI3K (human) = TNNI3K (human) (UniProt Q59H18)
ANKK1 (human) = ANKK1 (human) (UniProt Q8NFD2)
RPS6KA6 KD2 (human) = RPS6KA6 KD2 (human) (UniProt Q9UK32)
RPS6KA6 KD2 (human), sequence (Q9UK32 whole entry, looked up): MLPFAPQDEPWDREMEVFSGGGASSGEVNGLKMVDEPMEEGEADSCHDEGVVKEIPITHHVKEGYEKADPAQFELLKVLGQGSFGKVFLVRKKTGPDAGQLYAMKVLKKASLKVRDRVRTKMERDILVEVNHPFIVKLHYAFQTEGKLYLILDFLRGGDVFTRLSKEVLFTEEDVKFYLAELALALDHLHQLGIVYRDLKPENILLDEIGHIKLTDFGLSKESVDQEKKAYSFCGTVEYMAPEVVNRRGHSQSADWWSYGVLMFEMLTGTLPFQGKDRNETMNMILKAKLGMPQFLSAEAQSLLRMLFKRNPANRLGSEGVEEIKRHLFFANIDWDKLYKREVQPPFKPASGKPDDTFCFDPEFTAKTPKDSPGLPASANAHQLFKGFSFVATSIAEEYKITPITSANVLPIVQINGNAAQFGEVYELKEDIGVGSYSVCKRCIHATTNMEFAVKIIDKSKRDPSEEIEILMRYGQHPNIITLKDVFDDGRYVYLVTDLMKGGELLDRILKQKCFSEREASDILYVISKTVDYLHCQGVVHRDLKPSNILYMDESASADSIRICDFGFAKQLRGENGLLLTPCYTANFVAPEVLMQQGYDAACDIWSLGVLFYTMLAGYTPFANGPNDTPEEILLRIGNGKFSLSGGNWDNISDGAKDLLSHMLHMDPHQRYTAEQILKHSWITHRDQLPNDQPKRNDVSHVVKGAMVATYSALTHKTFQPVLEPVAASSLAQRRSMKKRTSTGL

PIK3CD (human) = PIK3CD (human) (UniProt O00329)
MAP3K10 (human) = MAP3K10 (human) (UniProt Q02779)
TLK2 (human) = TLK2 (human) (UniProt Q86UE8)
SRMS (human) = SRMS (human) (UniProt Q9H3Y6)
DYRK1B (human) = DYRK1B (human) (UniProt Q9Y463)
TAOK3 (human) = TAOK3 (human) (UniProt Q9H2K8)
MARK4 (human) = MARK4 (human) (UniProt Q96L34)
FYN (human) = FYN (human) (UniProt P06241)
BMPR2 (human) = BMPR2 (human) (UniProt Q13873)
[1] = test system: PIK3CA (human), P42336 [E542K]
PIK3CA (human), P42336 [E542K], sequence (P42336 whole entry E542K, looked up): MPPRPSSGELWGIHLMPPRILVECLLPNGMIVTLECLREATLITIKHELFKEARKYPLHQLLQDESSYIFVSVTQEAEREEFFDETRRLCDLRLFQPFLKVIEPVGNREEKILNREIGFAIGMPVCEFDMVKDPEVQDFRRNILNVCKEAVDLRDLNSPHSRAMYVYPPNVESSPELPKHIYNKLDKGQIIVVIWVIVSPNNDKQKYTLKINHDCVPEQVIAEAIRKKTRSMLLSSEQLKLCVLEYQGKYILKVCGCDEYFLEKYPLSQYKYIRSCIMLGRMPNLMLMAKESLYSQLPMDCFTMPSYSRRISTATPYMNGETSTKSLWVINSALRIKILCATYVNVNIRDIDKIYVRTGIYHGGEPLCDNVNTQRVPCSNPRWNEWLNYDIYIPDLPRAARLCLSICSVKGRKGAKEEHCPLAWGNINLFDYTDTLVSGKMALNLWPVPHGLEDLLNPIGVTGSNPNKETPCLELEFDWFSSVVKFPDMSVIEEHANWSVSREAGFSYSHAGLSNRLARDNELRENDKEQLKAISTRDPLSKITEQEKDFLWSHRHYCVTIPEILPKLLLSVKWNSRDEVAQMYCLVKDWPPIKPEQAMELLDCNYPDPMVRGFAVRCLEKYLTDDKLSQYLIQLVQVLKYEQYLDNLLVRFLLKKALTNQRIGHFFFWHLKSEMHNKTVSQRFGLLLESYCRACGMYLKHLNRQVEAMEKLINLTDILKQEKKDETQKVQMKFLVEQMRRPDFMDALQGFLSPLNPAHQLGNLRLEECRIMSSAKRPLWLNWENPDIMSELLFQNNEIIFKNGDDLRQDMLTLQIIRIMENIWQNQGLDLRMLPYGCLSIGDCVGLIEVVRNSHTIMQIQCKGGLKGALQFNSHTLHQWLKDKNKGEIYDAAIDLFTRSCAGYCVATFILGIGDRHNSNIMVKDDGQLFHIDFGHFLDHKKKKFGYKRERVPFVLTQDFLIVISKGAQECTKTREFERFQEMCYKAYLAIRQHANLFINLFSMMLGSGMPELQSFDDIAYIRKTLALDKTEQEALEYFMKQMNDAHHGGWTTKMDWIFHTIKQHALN

IRAK1 (human) = IRAK1 (human) (UniProt P51617)
SBK1 (human) = SBK1 (human) (UniProt Q52WX2)
STK32B (human) = STK32B (human) (UniProt Q9NY57)
ABL2 (human) = ABL2 (human) (UniProt P42684)
ABL2 (human), sequence (P42684 whole entry, looked up): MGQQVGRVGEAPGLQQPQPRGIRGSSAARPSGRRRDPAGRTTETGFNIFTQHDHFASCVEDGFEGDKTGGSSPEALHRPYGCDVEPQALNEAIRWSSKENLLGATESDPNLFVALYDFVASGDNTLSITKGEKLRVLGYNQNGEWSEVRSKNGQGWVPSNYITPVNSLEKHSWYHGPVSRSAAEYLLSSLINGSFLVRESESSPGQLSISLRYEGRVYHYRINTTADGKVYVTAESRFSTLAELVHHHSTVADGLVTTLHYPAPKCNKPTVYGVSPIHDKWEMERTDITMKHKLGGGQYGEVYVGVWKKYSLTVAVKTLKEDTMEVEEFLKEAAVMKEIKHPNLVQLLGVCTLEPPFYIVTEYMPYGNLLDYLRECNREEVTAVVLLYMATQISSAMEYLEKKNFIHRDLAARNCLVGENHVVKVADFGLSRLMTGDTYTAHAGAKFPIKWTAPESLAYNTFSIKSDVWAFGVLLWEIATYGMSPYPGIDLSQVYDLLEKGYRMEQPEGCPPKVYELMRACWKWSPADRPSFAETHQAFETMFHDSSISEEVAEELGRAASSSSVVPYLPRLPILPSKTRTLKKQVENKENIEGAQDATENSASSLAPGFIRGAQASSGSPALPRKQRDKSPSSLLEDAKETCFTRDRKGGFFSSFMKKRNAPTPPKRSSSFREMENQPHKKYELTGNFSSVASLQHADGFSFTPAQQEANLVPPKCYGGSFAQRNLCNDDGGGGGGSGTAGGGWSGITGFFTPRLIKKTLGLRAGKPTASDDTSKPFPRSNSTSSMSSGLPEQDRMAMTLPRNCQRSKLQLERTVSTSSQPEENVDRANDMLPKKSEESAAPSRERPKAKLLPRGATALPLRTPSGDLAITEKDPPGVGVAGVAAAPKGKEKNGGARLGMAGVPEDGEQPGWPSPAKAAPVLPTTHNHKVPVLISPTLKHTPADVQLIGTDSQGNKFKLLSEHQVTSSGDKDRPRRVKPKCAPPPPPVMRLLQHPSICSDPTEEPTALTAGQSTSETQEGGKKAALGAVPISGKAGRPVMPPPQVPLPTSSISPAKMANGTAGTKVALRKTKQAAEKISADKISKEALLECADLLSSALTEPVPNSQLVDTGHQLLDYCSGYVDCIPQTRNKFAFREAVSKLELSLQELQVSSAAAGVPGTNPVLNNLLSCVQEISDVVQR

GRK7 (human) = GRK7 (human) (UniProt Q8WTQ7)
MAPK14 (human) = MAPK14 (human) (UniProt Q16539)
MAPK14 (human), sequence (Q16539 whole entry, looked up): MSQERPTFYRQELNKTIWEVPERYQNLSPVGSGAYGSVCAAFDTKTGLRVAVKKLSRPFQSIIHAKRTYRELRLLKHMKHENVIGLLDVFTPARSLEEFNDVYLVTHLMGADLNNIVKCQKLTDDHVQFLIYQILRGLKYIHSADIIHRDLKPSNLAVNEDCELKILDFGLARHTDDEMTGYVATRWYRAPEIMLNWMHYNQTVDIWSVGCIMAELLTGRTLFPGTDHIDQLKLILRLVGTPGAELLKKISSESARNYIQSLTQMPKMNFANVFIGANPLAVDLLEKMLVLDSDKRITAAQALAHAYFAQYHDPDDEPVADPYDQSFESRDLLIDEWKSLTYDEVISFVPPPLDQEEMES

NEK2 (human) = NEK2 (human) (UniProt P51955)
SRC (human) = SRC (human) (UniProt P12931)
AAK1 (human) = AAK1 (human) (UniProt Q2M2I8)
INSRR (human) = INSRR (human) (UniProt P14616)
PRKD1 (human) = PRKD1 (human) (UniProt Q15139)
DDR2 (human) = DDR2 (human) (UniProt Q16832)
DMPK (human) = DMPK (human) (UniProt Q09013)
MATK (human) = MATK (human) (UniProt P42679)
TNIK (human) = TNIK (human) (UniProt Q9UKE5)
TAOK2 (human) = TAOK2 (human) (UniProt Q9UL54)
TGFBR1 (human) = TGFBR1 (human) (UniProt P36897)
RIPK2 (human) = RIPK2 (human) (UniProt O43353)

STK38L (human), sequence (Q9Y2H1 whole entry, looked up): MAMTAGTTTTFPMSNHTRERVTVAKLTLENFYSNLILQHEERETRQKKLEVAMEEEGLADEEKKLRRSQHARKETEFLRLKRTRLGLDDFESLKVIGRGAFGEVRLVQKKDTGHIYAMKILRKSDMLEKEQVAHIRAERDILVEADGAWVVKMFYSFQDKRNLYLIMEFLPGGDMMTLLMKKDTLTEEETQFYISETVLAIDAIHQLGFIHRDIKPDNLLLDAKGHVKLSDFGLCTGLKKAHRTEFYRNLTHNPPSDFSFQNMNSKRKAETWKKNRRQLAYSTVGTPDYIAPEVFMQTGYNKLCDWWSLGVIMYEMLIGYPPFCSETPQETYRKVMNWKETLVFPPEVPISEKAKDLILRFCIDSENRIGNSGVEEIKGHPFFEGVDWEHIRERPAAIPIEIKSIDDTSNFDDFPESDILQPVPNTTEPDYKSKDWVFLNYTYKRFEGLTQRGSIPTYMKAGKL
EPHA5 (human), sequence (P54756 whole entry, looked up): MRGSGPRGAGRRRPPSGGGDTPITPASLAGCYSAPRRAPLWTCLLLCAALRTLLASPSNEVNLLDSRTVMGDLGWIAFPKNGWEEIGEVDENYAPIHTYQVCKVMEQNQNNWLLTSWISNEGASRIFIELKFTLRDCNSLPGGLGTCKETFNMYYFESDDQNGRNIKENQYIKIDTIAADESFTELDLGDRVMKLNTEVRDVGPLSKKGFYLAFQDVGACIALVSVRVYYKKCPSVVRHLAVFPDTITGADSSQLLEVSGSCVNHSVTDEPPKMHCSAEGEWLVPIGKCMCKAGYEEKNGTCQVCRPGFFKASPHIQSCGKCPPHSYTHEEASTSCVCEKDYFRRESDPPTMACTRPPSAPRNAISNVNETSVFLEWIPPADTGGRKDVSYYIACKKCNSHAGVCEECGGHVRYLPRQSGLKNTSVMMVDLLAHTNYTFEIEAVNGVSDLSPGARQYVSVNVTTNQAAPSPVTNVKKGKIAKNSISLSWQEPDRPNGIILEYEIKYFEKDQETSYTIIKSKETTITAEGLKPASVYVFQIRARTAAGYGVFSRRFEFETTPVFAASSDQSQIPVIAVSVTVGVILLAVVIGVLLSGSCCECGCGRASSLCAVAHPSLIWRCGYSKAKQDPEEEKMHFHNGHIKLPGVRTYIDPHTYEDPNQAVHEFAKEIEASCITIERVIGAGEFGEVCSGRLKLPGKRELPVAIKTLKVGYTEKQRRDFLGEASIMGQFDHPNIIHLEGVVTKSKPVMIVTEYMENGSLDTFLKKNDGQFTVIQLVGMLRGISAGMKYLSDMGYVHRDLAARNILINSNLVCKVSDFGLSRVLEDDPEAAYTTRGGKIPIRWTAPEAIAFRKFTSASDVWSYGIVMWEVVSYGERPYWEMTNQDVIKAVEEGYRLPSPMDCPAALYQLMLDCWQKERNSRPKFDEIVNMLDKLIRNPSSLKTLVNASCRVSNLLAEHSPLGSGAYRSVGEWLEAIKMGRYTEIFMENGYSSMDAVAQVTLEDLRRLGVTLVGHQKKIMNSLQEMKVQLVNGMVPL

Compound | kinase still bound, per cent of control (MERTK (human)) [%] | kinase still bound, per cent of control (CASK (human)) [%] | kinase still bound, per cent of control (STK38L (human)) [%] | kinase still bound, per cent of control (MAP2K6 (human)) [%] | kinase still bound, per cent of control (MAP3K5 (human)) [%] | kinase still bound, per cent of control (TNNI3K (human)) [%] | kinase still bound, per cent of control (ANKK1 (human)) [%] | kinase still bound, per cent of control (RPS6KA6 KD2 (human)) [%] | kinase still bound, per cent of control (PIK3CD (human)) [%] | kinase still bound, per cent of control (MAP3K10 (human)) [%] | kinase still bound, per cent of control (TLK2 (human)) [%] | kinase still bound, per cent of control (SRMS (human)) [%] | kinase still bound, per cent of control (DYRK1B (human)) [%] | kinase still bound, per cent of control (TAOK3 (human)) [%] | kinase still bound, per cent of control (MARK4 (human)) [%] | kinase still bound, per cent of control [1] [%] | kinase still bound, per cent of control (IRAK1 (human)) [%] | kinase still bound, per cent of control (SBK1 (human)) [%] | kinase still bound, per cent of control (STK32B (human)) [%] | kinase still bound, per cent of control (GRK7 (human)) [%] | other results
N#C/C(=C1/Nc2ccccc2S1)c1ccnc(NCCc2cccnc2)n1 | 100 | 100 | 100 | 64 | 100 | 93 | 5.6 | 52 | 78 | 85 | 75 | 2.4 | 23 | 24 | 100 | 100 | 6.2 | 94 | 100 | 47 | kinase still bound, per cent of control (EPHA5 (human)): 99%; kinase still bound, per cent of control (MET (human)): 98%; kinase still bound, per cent of control (PLK4 (human)): 68%; kinase still bound, per cent of control (MAP2K3 (human)): 33%; kinase still bound, per cent of control (FYN (human)): 100%; kinase still bound, per cent of control (BMPR2 (human)): 88%; kinase still bound, per cent of control (ABL2 (human)): 100%; kinase still bound, per cent of control (MAPK14 (human)): 57%; kinase still bound, per cent of control (NEK2 (human)): 96%; kinase still bound, per cent of control (SRC (human)): 100%; kinase still bound, per cent of control (AAK1 (human)): 10%; kinase still bound, per cent of control (INSRR (human)): 100%; kinase still bound, per cent of control (PRKD1 (human)): 100%; kinase still bound, per cent of control (DDR2 (human)): 100%; kinase still bound, per cent of control (DMPK (human)): 100%; kinase still bound, per cent of control (MATK (human)): 100%; kinase still bound, per cent of control (TNIK (human)): 70%; kinase still bound, per cent of control (TAOK2 (human)): 45%; kinase still bound, per cent of control (TGFBR1 (human)): 100%; kinase still bound, per cent of control (RIPK2 (human)): 81%
COc1cc2c(Nc3ccc(NC(=O)c4ccccc4)cc3)ncnc2cc1OCCCN1CCOCC1 | 2.4 | 100 | 100 | 86 | 100 | 94 | 17 | 71 | 100 | 86 | 100 | 2.4 | 96 | 95 | 100 | 100 | 66 | 92 | 100 | 71 | kinase still bound, per cent of control (EPHA5 (human)): 100%; kinase still bound, per cent of control (PLK4 (human)): 2%; kinase still bound, per cent of control (MAP2K3 (human)): 100%; kinase still bound, per cent of control (FYN (human)): 55%; kinase still bound, per cent of control (BMPR2 (human)): 81%; kinase still bound, per cent of control (ABL2 (human)): 82%; kinase still bound, per cent of control (MAPK14 (human)): 100%; kinase still bound, per cent of control (NEK2 (human)): 51%; kinase still bound, per cent of control (SRC (human)): 32%; kinase still bound, per cent of control (AAK1 (human)): 94%; kinase still bound, per cent of control (INSRR (human)): 100%; kinase still bound, per cent of control (PRKD1 (human)): 99%; kinase still bound, per cent of control (DDR2 (human)): 100%; kinase still bound, per cent of control (DMPK (human)): 100%; kinase still bound, per cent of control (MATK (human)): 100%; kinase still bound, per cent of control (TNIK (human)): 51%; kinase still bound, per cent of control (TAOK2 (human)): 94%; kinase still bound, per cent of control (TGFBR1 (human)): 100%; kinase still bound, per cent of control (RIPK2 (human)): 2.8%
CCc1nc(-c2cccc(C)c2)c(-c2ccnc(NC(=O)c3ccccc3)c2)s1 | 100 | 100 | 96 | 79 | 100 | 86 | 83 | 4.3 | 100 | 100 | 87 | 83 | 90 | 86 | 100 | 100 | 99 | 100 | 7 | 100 | kinase still bound, per cent of control (EPHA5 (human)): 90%; kinase still bound, per cent of control (MET (human)): 94%; kinase still bound, per cent of control (PLK4 (human)): 100%; kinase still bound, per cent of control (MAP2K3 (human)): 96%; kinase still bound, per cent of control (FYN (human)): 45%; kinase still bound, per cent of control (BMPR2 (human)): 90%; kinase still bound, per cent of control (ABL2 (human)): 47%; kinase still bound, per cent of control (NEK2 (human)): 95%; kinase still bound, per cent of control (SRC (human)): 14%; kinase still bound, per cent of control (AAK1 (human)): 96%; kinase still bound, per cent of control (INSRR (human)): 100%; kinase still bound, per cent of control (PRKD1 (human)): 65%; kinase still bound, per cent of control (DDR2 (human)): 16%; kinase still bound, per cent of control (DMPK (human)): 92%; kinase still bound, per cent of control (MATK (human)): 100%; kinase still bound, per cent of control (TNIK (human)): 5.5%; kinase still bound, per cent of control (TAOK2 (human)): 86%; kinase still bound, per cent of control (RIPK2 (human)): 1.2%
CCN(CCO)CCCOc1ccc2c(Nc3cc(CC(=O)Nc4cccc(F)c4)[nH]n3)ncnc2c1 | 77 | 88 | 100 | 99 | 100 | 100 | 11 | 64 | 88 | 92 | 100 | 29 | 86 | 100 | 100 | 100 | 63 | 100 | 100 | 54 | kinase still bound, per cent of control (MET (human)): 46%; kinase still bound, per cent of control (MAPK14 (human)): 100%; kinase still bound, per cent of control (NEK2 (human)): 83%; kinase still bound, per cent of control (SRC (human)): 43%; kinase still bound, per cent of control (INSRR (human)): 76%; kinase still bound, per cent of control (PRKD1 (human)): 72%; kinase still bound, per cent of control (DDR2 (human)): 27%; kinase still bound, per cent of control (DMPK (human)): 93%; kinase still bound, per cent of control (MATK (human)): 71%; kinase still bound, per cent of control (TNIK (human)): 52%; kinase still bound, per cent of control (TAOK2 (human)): 98%; kinase still bound, per cent of control (TGFBR1 (human)): 98%; kinase still bound, per cent of control (RIPK2 (human)): 17%
